Measurements taken from patent US20250122219A1 (priority 2023, published 2025).
Like-named read-outs stand apart in the source and are kept apart here.

How the values were obtained:
[1] = Cytotoxicity assay in MT-4 cells; format: cell-based; conditions: human; uninfected MT-4 cells, 5 days incubation, Cell Titer Glo; read-out: MT4 CC50
Protocol: (§1) Compounds were tested in a high-throughput 384-well assay format for their ability to inhibit the replication of HIV-1 (IIIB) in MT-4 cells. Compounds were serially diluted (1.3) in DMSO on 384-well polypropylene plates and further diluted 200-fold into complete RPMI media (10% FBS, 1% P/S) using the Biotek Micro Flow and Labcyte ECHO acoustic dispenser. Each plate contained up to 8 test compounds, with negative (No Drug Control) and 5 μM AZT positive controls. MT-4 cells were pre-infected with 10 μL of either RPMI (mock-infected) or a fresh 1:250 dilution of HIV-1 IIIB concentrated virus stock. Infected and uninfected MT-4 cells were further diluted in complete RPMI media and added to each plate using a Micro Flow dispenser. After 5 days incubation in a humidified and temperature controlled incubator (37° C.), Cell Titer Glo (Promega) was added to the assay plates and chemiluminescence read using an Envision plate-reader.
Assays were performed as above except uninfected MT-4 cells were added to each well containing test compound. In addition, […] puromycin was added to the last column of each assay plate to assess a base level of cytotoxicity.

[2] = tested on: HIV-1 (IIIB); assay: Antiviral assay in MT-4 cells; format: cell-based
Protocol: as §1

[3] = Human immunodeficiency virus 1, MT4, 120 h, HIV-1 IIIB in MT-4 cells, 5 days incubation, Cell Titer Glo, read-out: MT4 EC50
[4] = Human immunodeficiency virus 1, IIIB, MT4, 120 h, read-out: MT4 EC50 (nM)

SMILES	CC50 at 5 days [1]	EC50 [2, 3]	EC50 [2, 4]
COCCOC(=O)Oc1c2n(cc(C(=O)NCc3ccc(F)cc3F)c1=O)[C@@H]1CN(C2=O)[C@@H](C)CC[C@]12CC(OC)=NO2 [Example 1, (3′S,5S,7′R)-10′-((2,4-difluorobenzyl)carbamoyl)-3-methoxy-3′-methyl-1′,11′-dioxo-1′,4′,5′,11′-tetrahydro-3′H,4H,7′H-spiro[isoxazole-5,6′-[2,7]methanopyrido[1,2-a][1],4diazonin]-12′-yl (2-methoxyethyl) carbonate]	10900 nM	1.48 nM	–
COCCOCCOC(=O)Oc1c2n(cc(C(=O)NCc3ccc(F)cc3F)c1=O)[C@@H]1CN(C2=O)[C@@H](C)CC[C@]12CC(OC)=NO2 [Example 2, (3′S,5S,7′R)-1O′-((2,4-difluorobenzyl)carbamoyl)-3-methoxy-3′-methyl-1′,11′-dioxo-1′,4′,5′,11′-tetrahydro-3′H,4H,7′H-spiro[isoxazole-5,6′-[2,7]methanopyrido[1,2-a][1,4]diazonin]-12′-yl (2-(2-methoxyethoxy)ethyl) carbonate]	11500 nM	–	0.79 nM
COCCOCCOC(=O)OCOc1c2n(cc(C(=O)NCc3ccc(F)cc3F)c1=O)[C@@H]1CN(C2=O)[C@@H](C)CC[C@]12CC(OC)=NO2 [Example 4, (((3′S,5S,7′R)-10′-((2,4-difluorobenzyl)carbamoyl)-3-methoxy-3′-methyl-1′,11′-dioxo-1′,4′,5′,11′-tetrahydro-3′H,4H,7′H-spiro[isoxazole-5,6′-[2,7]methanopyrido[1,2-a][1,4]diazonin]-12′-yl)oxy)methyl (2-(2-methoxyethoxy)ethyl) carbonate]	≥ 50000 nM	15.4 nM	–
CCCCCCCCCCCCCCCCCC(=O)Oc1c2n(cc(C(=O)NCc3ccc(F)cc3F)c1=O)[C@@H]1CN(C2=O)[C@@H](C)CC[C@]12CC(OC)=NO2 [Example 6, (3′S,5S,7′R)-10′-((2,4-difluorobenzyl)carbamoyl)-3-methoxy-3′-methyl-1′,11′-dioxo-1′,4′,5′,11′-tetrahydro-3′H,4H,7′H-spiro[isoxazole-5,6′-[2,7]methanopyrido[1,2-a][1,4]diazonin]-12′-yl stearate]	≥ 50000 nM	9.48 nM	–
CCCCC/C=C\C/C=C\CCCCCCCC(=O)Oc1c2n(cc(C(=O)NCc3ccc(F)cc3F)c1=O)[C@@H]1CN(C2=O)[C@@H](C)CC[C@]12CC(OC)=NO2 [Example 7, (3′S,5S,7′R)-10′-((2,4-difluorobenzyl)carbamoyl)-3-methoxy-3′-methyl-1′,11′-dioxo-1′,4′,5′,11′-tetrahydro-3′H,4H,7′H-spiro[isoxazole-5,6′-[2,7]methanopyrido[1,2-a][1,4]diazonin]-12′-yl (9Z,12Z)-octadeca-9,12-dienoate]	≥ 50000 nM	7.46 nM	–
COCCOC(=O)Oc1c2n(cc(C(=O)NCc3ccc(F)cc3F)c1=O)[C@@H]1CN(C2=O)[C@@H](C)CC[C@]12CC(C)=NO2 [Example 9, (3′S,5S,7′R)-10′-((2,4-difluorobenzyl)carbamoyl)-3,3′-dimethyl-1′,11′-dioxo-1′,4′,5′,11′-tetrahydro-3′H,4H,7′H-spiro[isoxazole-5,6′-[2,7]methanopyrido[1,2-a][1,4]diazonin]-12′-yl (2-methoxyethyl) carbonate]	19600 nM	1.61 nM	–
CCCCCCCCCCCCCC(=O)Oc1c2n(cc(C(=O)NCc3ccc(F)cc3F)c1=O)[C@@H]1CN(C2=O)[C@@H](C)CC[C@]12CC(C)=NO2 [Example 13, (3′S,5S,7′R)-10′-((2,4-difluorobenzyl)carbamoyl)-3,3′-dimethyl-1′,11′-dioxo-1′,4′,5′,11′-tetrahydro-3′H,4H,7′H-spiro[isoxazole-5,6′-[2,7]methanopyrido[1,2-a][1,4]diazonin]-12′-yl tetradecanoate]	13400 nM	4.84 nM	–
CCCCCCCCCCCCCCCC(=O)Oc1c2n(cc(C(=O)NCc3ccc(F)cc3F)c1=O)[C@@H]1CN(C2=O)[C@@H](C)CC[C@]12CC(C)=NO2 [Example 14, (3′S,5S,7′R)-10′-((2,4-difluorobenzyl)carbamoyl)-3,3′-dimethyl-1′,11′-dioxo-1′,4′,5′,11′-tetrahydro-3′H,4H,7′H-spiro[isoxazole-5,6′-[2,7]methanopyrido[1,2-a][1,4]diazonin]-12′-yl palmitate]	≥ 50000 nM	6.46 nM	–
CC1=NO[C@@]2(CC[C@H](C)N3C[C@H]2n2cc(C(=O)NCc4ccc(F)cc4F)c(=O)c(OCOC(=O)C(C)(C)C)c2C3=O)C1 [Example 18, (((3′S,5S,7′R)-10′-((2,4-difluorobenzyl)carbamoyl)-3,3′-dimethyl-1′,11′-dioxo-1′,4′,5′,11′-tetrahydro-3′H,4H,7′H-spiro[isoxazole-5,6′-[2,7]methanopyrido[1,2-a][1,4]diazonin]-12′-yl)oxy)methyl pivalate]	20100 nM	2.76 nM	–
COCCOCCOC(=O)OCOc1c2n(cc(C(=O)NCc3ccc(F)cc3F)c1=O)[C@@H]1CN(C2=O)[C@@H](C)CC[C@]12CC(C)=NO2 [Example 23, (((3′S,5S,7′R)-10′-((2,4-difluorobenzyl)carbamoyl)-3,3′-dimethyl-1′,11′-dioxo-1′,4′,5′,11′-tetrahydro-3′H,4H,7′H-spiro[isoxazole-5,6′-[2,7]methanopyrido[1,2-a][1,4]diazonin]-12′-yl)oxy)methyl (2-(2-methoxyethoxy)ethyl) carbonate]	27300 nM	2.79 nM	–
COC1=NO[C@@]2(CC[C@H](C)N3C[C@H]2n2cc(C(=O)NCc4ccc(F)cc4F)c(=O)c(OC(=O)/C=C/C(=O)O)c2C3=O)C1 [Example 25, (E)-4-(((3′S,5S,7′R)-10′-((2,4-difluorobenzyl)carbamoyl)-3-methoxy-3′-methyl-1′,11′-dioxo-1′,4′,5′,11′-tetrahydro-3′H,4H,7′H-spiro[isoxazole-5,6′-[2,7]methanopyrido[1,2-a][1,4]diazonin]-12′-yl)oxy)-4-oxobut-2-enoic acid]	16200 nM	–	1.9 nM
CCCCCCCCCCCCCC(=O)Oc1c2n(cc(C(=O)NCc3ccc(F)cc3F)c1=O)[C@@H]1CN(C2=O)[C@@H](C)CC[C@]12CC(OC)=NO2 [Example 26, (3′S,5S,7′R)-10′-((2,4-difluorobenzyl)carbamoyl)-3-methoxy-3′-methyl-1′,11′-dioxo-1′,4′,5′,11′-tetrahydro-3′H,4H,7′H-spiro[isoxazole-5,6′-[2,7]methanopyrido[1,2-a][1,4]diazonin]-12′-yl tetradecanoate]	22600 nM	2.62 nM	–
CCCCCCCCCCCCCCCC(=O)Oc1c2n(cc(C(=O)NCc3ccc(F)cc3F)c1=O)[C@@H]1CN(C2=O)[C@@H](C)CC[C@]12CC(OC)=NO2 [Example 27, (3′S,5S,7′R)-10′-((2,4-difluorobenzyl)carbamoyl)-3-methoxy-3′-methyl-1′,11′-dioxo-1′,4′,5′,11′-tetrahydro-3′H,4H,7′H-spiro[isoxazole-5,6′-[2,7]methanopyrido[1,2-a][1,4]diazonin]-12′-yl palmitate]	≥ 50000 nM	4.5 nM	–
COC1=NO[C@@]2(CC[C@H](C)N3C[C@H]2n2cc(C(=O)NCc4ccc(F)cc4F)c(=O)c(OC(C)=O)c2C3=O)C1 [Example 28, (3′S,5S,7′R)-10′-((2,4-difluorobenzyl)carbamoyl)-3-methoxy-3′-methyl-1′,11′-dioxo-1′,4′,5′,11′-tetrahydro-3′H,4H,7′H-spiro[isoxazole-5,6′-[2,7]methanopyrido[1,2-a][1,4]diazonin]-12′-yl acetate]	11600 nM	1.72 nM	–
CCCCC(=O)Oc1c2n(cc(C(=O)NCc3ccc(F)cc3F)c1=O)[C@@H]1CN(C2=O)[C@@H](C)CC[C@]12CC(OC)=NO2 [Example 29, (3′S,5S,7′R)-10′-((2,4-difluorobenzyl)carbamoyl)-3-methoxy-3′-methyl-1′,11′-dioxo-1′,4′,5′,11′-tetrahydro-3′H,4H,7′H-spiro[isoxazole-5,6′-[2,7]methanopyrido[1,2-a][1,4]diazonin]-12′-yl pentanoate]	12300 nM	1.61 nM	–
COC1=NO[C@@]2(CC[C@H](C)N3C[C@H]2n2cc(C(=O)NCc4ccc(F)cc4F)c(=O)c(OC(=O)OC(C)C)c2C3=O)C1 [Example 30, (3′S,5S,7′R)-10′-((2,4-difluorobenzyl)carbamoyl)-3-methoxy-3′-methyl-1′,11′-dioxo-1′,4′,5′,11′-tetrahydro-3′H,4H,7′H-spiro[isoxazole-5,6′-[2,7]methanopyrido[1,2-a][1,4]diazonin]-12′-yl isopropyl carbonate]	12600 nM	–	1.3 nM
COC1=NO[C@@]2(CC[C@H](C)N3C[C@H]2n2cc(C(=O)NCc4ccc(F)cc4F)c(=O)c(OCOC(=O)OC[C@H](C)OC)c2C3=O)C1 [Example 220, (((3′S,5S,7′R)-10′-((2,4-difluorobenzyl)carbamoyl)-3-methoxy-3′-methyl-1′,11′-dioxo-1′,4′,5′,11′-tetrahydro-3′H,4H,7′H-spiro[isoxazole-5,6′-[2,7]methanopyrido[1,2-a][1,4]diazonin]-12′-yl)oxy)methyl ((S)-2-methoxypropyl) carbonate]	41600 nM	–	–
